Source: patent US20130281397A1, “TREATMENT OF DISEASES BY EPIGENETIC REGULATION” (RVX Therapeutics Inc., priority 2012, published 2013)

Legend:
[1] = test system: Human AML MV-4-11 cells; assay: Inhibition of cell proliferation in human AML MV-4-11 cells; assay type: cell-based; design: key: Active: Compounds with an IC50 value less than 30 uM were deemed to be active; conditions: 72 hours, CellTiter Aqueous One Solution, 30 uM to 0.2 μM
Description: MV4-11 cells: 96-well plates were seeded with 5×10^4 cells per well of exponentially growing human AML MV-4-11 (CRL-9591) cells and immediately treated with two-fold dilutions of test compounds, ranging from 30 uM to 0.2 μM. Triplicate wells were used for each concentration, as well as a media only and three DMSO control wells. The cells and compounds were incubated at 37° C., 5% CO2 for 72 hours before adding 20 μL of the CellTiter Aqueous One Solution (Promega) to each well and incubating at 37° C., 5% CO2 for an additional 3-4 hours. The absorbance was taken at 490 nm in a spectrophotometer and the percentage of proliferation relative to DMSO-treated cells was calculated after correction from the blank well. IC50 were calculated using the GraphPad Prism software.

[2] = test system: c-myc; assay: Inhibition of c-myc expression (mRNA, real-time PCR) in MV4-11 cells; assay type: cell-based, Human; design: key: Active: Compounds with an IC50 value less than 30 μM were deemed to be active; conditions: 3 hours at 37° C., duplex with cyclophilin
Description: MV4-11 cells (2.5×10^4 cells) were plated in 96 well U-bottom plates with test compound or DMSO (0.1%), and incubated for 3 hours at 37° C. Cells were then harvested by centrifugation, lysed, and mRNA was isolated using the mRNA catcher plus kit (Invitrogen). Reverse transcription of the mRNA and duplex amplification of the c-myc and cyclophilin cDNAs were performed using the RNA Ultrasense kit (Invitrogen) and a ViiA7 real-time PCR machine (Applied Biosystems). IC50 values were determined from a dose response curve.

[3] = biological target: T1, Brd4 bromodomain 1 (Homo sapiens, UniProt O60885); assay: Inhibition of binding of tetra-acetylated histone H4 and Brd4 bromodomain 1 by TR-FRET; conditions: His-tagged bromodomain 200 nM, biotinylated tetra-acetylated histone H4 peptide 25-50 nM, 2 hours at room temperature
T1 construct: made in house; host or cells: E. coli BL21(DE3)

For `COc1cc(OC)c2c(=O)[nH]c(-c3cc(C)c(O)c(C)c3)nc2c1` [Example 10, 2-(4-hydroxy-3,5-dimethylphenyl)-5,7-dimethoxyquinazolin-4(3H)-one], the “cell proliferation activity (<30 uM)” value [1] was “Active”, the “c-myc activity (<30 uM)” value [2] was “Active” and the “FRET activity (<50 uM)” value [3] was “Active”.
With `COc1cc(OC)c2c(=O)[nH]c(-c3ccc(N4CCN(C)CC4)cc3)nc2c1` [Example 38, 5,7-dimethoxy-2-(4-(4-methylpiperazin-1-yl)phenyl)quinazolin-4(3H)-one] the “cell proliferation activity (<30 uM)” value [1] was “Active”, the “c-myc activity (<30 uM)” value [2] was “Active” and the “FRET activity (<50 uM)” value [3] was “Active”.
With `COc1cc(OC)c2c(=O)[nH]c(-c3cc(C)c(OCCO)c(C)c3)nc2c1` [Example 16, 2-(4-(2-hydroxyethoxy)-3,5-dimethylphenyl)-5,7-dimethoxyquinazolin-4(3H)-one] the “c-myc activity (<30 uM)” value [2] was “Active” and the “FRET activity (<50 uM)” value [3] was “Active”.
In the case of `COc1cc(OC)c2c(=O)[nH]c(-c3cc(C)c(OCCN4CCOCC4)c(C)c3)nc2c1` [Example 17, 2-(3,5-dimethyl-4-(2-morpholinoethoxy)phenyl)-5,7-dimethoxyquinazolin-4(3H)-one], the “cell proliferation activity (<30 uM)” value [1] is reported as “Active” and the “FRET activity (<50 uM)” value [3] is reported as “Active”.
For `COc1cc2nc(-c3cc(C)c(O)c(C)c3)[nH]c(=O)c2c(OC)c1CN1CCOCC1` [Example 75, 2-(4-hydroxy-3,5-dimethylphenyl)-5,7-dimethoxy-6-(morpholinomethyl)quinazolin-4(3H)-one], the melting point was 237 to 239.1 °C, the “cell proliferation activity (<30 uM)” value [1] was “Active” and the “c-myc activity (<30 uM)” value [2] was “Active”. For the same compound, the “FRET activity (<50 uM)” value [3] was “Active”.
For `COc1cc(OC)c2c(=O)[nH]c(-c3cc(C)c(OCCNS(C)(=O)=O)c(C)c3)nc2c1` [Example 96, N-(2-(4-(5,7-dimethoxy-4-oxo-3,4-dihydroquinazolin-2-yl)-2,6-dimethylphenoxy)ethyl)methanesulfonamide], the “cell proliferation activity (<30 uM)” value [1] was “Active”, the “c-myc activity (<30 uM)” value [2] was “Inactive” and the “FRET activity (<50 uM)” value [3] was “Active”.
With `Cc1cc(-c2nc3ccc(CN4CCOCC4)cc3c(=O)[nH]2)cc(C)c1O` [Example 57, 2-(4-hydroxy-3,5-dimethylphenyl)-6-(morpholinomethyl)quinazolin-4(3H)-one] the “cell proliferation activity (<30 uM)” value [1] was “Active”, the “c-myc activity (<30 uM)” value [2] was “Active” and the “FRET activity (<50 uM)” value [3] was “Active”.
For `COc1cc2cc(-c3cc(C)c(O)c(C)c3)[nH]c(=O)c2c(OC)c1CN1CCOCC1` [Example 46, 3-(4-hydroxy-3,5-dimethylphenyl)-6,8-dimethoxy-7-(morpholinomethyl)isoquinolin-1(2H)-one], the melting point was 158 to 161 °C, the “cell proliferation activity (<30 uM)” value [1] was “Active” and the “c-myc activity (<30 uM)” value [2] was “Active”. The “FRET activity (<50 uM)” value [3] was “Active”.
With `COc1cc(OC)c2c(=O)[nH]c(-c3ccc4c(c3)OCCO4)nc2c1` [Example 37, 2-(2,3-dihydrobenzo[b][1,4]dioxin-6-yl)-5,7-dimethoxyquinazolin-4(3H)-one] the melting point was 307.5 to 309.6 °C and the “FRET activity (<50 uM)” value [3] was “Active”.
In the case of `COc1cc(OC)c2c(=O)[nH]c(-c3ccc(N(C)C)c4ccccc34)nc2c1` [Example 32, 2-(4-(dimethylamino)naphthalen-1-yl)-5,7-dimethoxyquinazolin-4(3H)-one], the melting point is reported as 269 to 271 °C and the “FRET activity (<50 uM)” value [3] is reported as “Inactive”.
In the case of `COc1cc2nc(-c3cc(C)c(OCC(N)=O)c(C)c3)[nH]c(=O)c2cc1OC` [Example 50, 2-(4-(6,7-dimethoxy-4-oxo-3,4-dihydroquinazolin-2-yl)-2,6-dimethylphenoxy)acetamide], the melting point is reported as 354 to 356 °C and the “FRET activity (<50 uM)” value [3] is reported as “Inactive”.
In the case of `COc1cc(OC)c2c(=O)[nH]c(-c3ccc(OC)c(CN4CCOCC4)c3)nc2c1` [Example 64, 5,7-dimethoxy-2-(4-methoxy-3-(morpholinomethyl)phenyl)quinazolin-4(3H)-one], the melting point is reported as 282.7 to 284.5 °C and the “FRET activity (<50 uM)” value [3] is reported as “Active”.
For `COc1cc(OC)c2c(=O)[nH]c(-c3ccc(O)cc3)cc2c1` [Example 3, 3-(4-hydroxyphenyl)-6,8-dimethoxyisoquinolin-1(2H)-one], the melting point was 245 to 247 °C and the “FRET activity (<50 uM)” value [3] was “Active”.
With `O=C(O)COc1ccc(-c2nc3ccccc3c(=O)[nH]2)cc1` [Example 34, 2-(4-(4-oxo-3,4-dihydroquinazolin-2-yl)phenoxy)acetic acid] the melting point was 285 to 287 °C and the “FRET activity (<50 uM)” value [3] was “Inactive”.
In the case of `Cc1cc(-c2nc3ccccc3c(=O)[nH]2)cc(C)c1OCCO` [Example 30, 2-(4-(2-hydroxyethoxy)-3,5-dimethylphenyl)quinazolin-4(3H)-one], the melting point is reported as 260 to 261 °C and the “FRET activity (<50 uM)” value [3] is reported as “Inactive”.
With `COc1cc(OC)c2c(=O)[nH]c(-c3cc(C)c(OCC(=O)O)c(C)c3)nc2c1` [Example 59, 2-(4-(5,7-dimethoxy-4-oxo-3,4-dihydroquinazolin-2-yl)-2,6-dimethylphenoxy)acetic acid] the melting point was 270 to 272 °C, the “c-myc activity (<30 uM)” value [2] was “Inactive” and the “FRET activity (<50 uM)” value [3] was “Active”.
With `COc1cc(OC)c2c(=O)[nH]c(-c3ccc(OCC(=O)O)c(OC)c3)nc2c1` [Example 97, 2-(4-(5,7-dimethoxy-4-oxo-3,4-dihydroquinazolin-2-yl)-2-methoxyphenoxy)acetic acid] the melting point was 275 to 277 °C and the “FRET activity (<50 uM)” value [3] was “Active”.
For `NC(=O)COc1ccc(-c2nc3ccccc3c(=O)[nH]2)cc1` [Example 36, 2-(4-(4-oxo-3,4-dihydroquinazolin-2-yl)phenoxy)acetamide], the melting point was 277.5 to 278.5 °C and the “FRET activity (<50 uM)” value [3] was “Inactive”.
With `COc1cc(OC)c2c(=O)n(C)c(-c3cc(C)c(O)c(C)c3)cc2c1` [Example 4, 3-(4-hydroxy-3,5-dimethylphenyl)-6,8-dimethoxy-2-methylisoquinolin-1(2H)-one] the melting point was 253 to 254 °C, the “cell proliferation activity (<30 uM)” value [1] was “Active” and the “c-myc activity (<30 uM)” value [2] was “Active”. For the same compound, the “FRET activity (<50 uM)” value [3] was “Active”.
With `CC(=O)Nc1ccc2nc(-c3cc(C)c(O)c(C)c3)[nH]c(=O)c2c1` [Example 49, N-(2-(4-hydroxy-3,5-dimethylphenyl)-4-oxo-3,4-dihydroquinazolin-6-yl)acetamide] the melting point was 336.5 °C (dec.) and the “FRET activity (<50 uM)” value [3] was “Inactive”.
For `COc1cc(OC)c2c(=O)[nH]c(-c3ccc(NC(=O)CO)cc3)nc2c1` [Example 60, N-(4-(5,7-dimethoxy-4-oxo-3,4-dihydroquinazolin-2-yl)phenyl)-2-hydroxyacetamide], the melting point was 318 to 319 °C and the “FRET activity (<50 uM)” value [3] was “Inactive”.
With `COc1cc(OC)c2c(=O)[nH]c(-c3ccc(OCC(N)=O)cc3)nc2c1` [Example 33, 2-(4-(5,7-dimethoxy-4-oxo-3,4-dihydroquinazolin-2-yl)phenoxy)acetamide] the melting point was 309 to 311 °C and the “FRET activity (<50 uM)” value [3] was “Active”.
With `COc1cc(OC)cc(-c2nc3cc(OC)cc(OC)c3c(=O)[nH]2)c1` [Example 24, 2-(3,5-dimethoxyphenyl)-5,7-dimethoxyquinazolin-4(3H)-one] the melting point was 270 to 272 °C and the “FRET activity (<50 uM)” value [3] was “Inactive”.
For `Cc1cc(C)c2c(=O)[nH]c(-c3cc(C)c(OCCO)c(C)c3)nc2c1` [Example 71, 2-(4-(2-hydroxyethoxy)-3,5-dimethylphenyl)-5,7-dimethylquinazolin-4(3H)-one], the melting point was 259.6 to 261.2 °C and the “FRET activity (<50 uM)” value [3] was “Inactive”.
With `COc1cc(OC)c2c(=O)[nH]c(-c3cc(C)c(OCCN4CCCC4)c(C)c3)nc2c1` [Example 67, 2-(3,5-dimethyl-4-(2-(pyrrolidin-1-yl)ethoxy)phenyl)-5,7-dimethoxyquinazolin-4(3H)-one] the “cell proliferation activity (<30 uM)” value [1] was “Active” and the “c-myc activity (<30 uM)” value [2] was “Active”.
In the case of `COc1cc(OC)c2c(=O)nc(-c3cc(C)c(O)c(C)c3)n(C)c2c1` [Example 66, 2-(4-hydroxy-3,5-dimethylphenyl)-5,7-dimethoxy-1-methylquinazolin-4(1H)-one], the melting point is reported as 188.5 to 189.1 °C and the “FRET activity (<50 uM)” value [3] is reported as “Active”.
For `Cc1cc(-c2nc3cc(Cl)cc(Cl)c3c(=O)[nH]2)cc(C)c1OCCO` [Example 74, 5,7-dichloro-2-(4-(2-hydroxyethoxy)-3,5-dimethylphenyl)quinazolin-4(3H)-one], the melting point was 260.8 to 262.6 °C and the “FRET activity (<50 uM)” value [3] was “Active”.
In the case of `COc1cc(OC)c2c(=O)[nH]c(-c3cc(C)c(OCCO)c(C)c3)nc2n1` [Example 65, 2-(4-(2-hydroxyethoxy)-3,5-dimethylphenyl)-5,7-dimethoxypyrido[2,3-d]pyrimidin-4(3H)-one], the melting point is reported as 255 to 256 °C and the “FRET activity (<50 uM)” value [3] is reported as “Active”.
